Experimental data published in PubChem BioAssay AID1963844 (Molecular Pharmacology Branch, DTP, NCI, 2024).

Test system: 422866-222-R5-J1-PDC complex spheroid viability
Assay: Anticancer human tumor 422866-222-R5-J1-PDC patient-derived pancreatic adenocarcinoma cell line growth inhibition [POLQ]
Conditions: for IC50: curve of first compound; for viability, T/C: stronger effect = lower value
Procedure, shortened: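 Three-cell-type spheroids modelling solid tumor plus stroma served as the readout system; POL inhibitors were tested individually and in combination, concentration ranges set by clinical Cmax where known.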

[1] = second compound 0.0316 µM, first compound 0.0316 µM
[2] = second compound 0.0316 µM, first compound 0.1 µM
[3] = second compound 0.0316 µM, first compound 0.316 µM
[4] = second compound 0.0316 µM, first compound 1 µM
[5] = second compound 0.0316 µM, first compound 3.16 µM
[6] = second compound 0.0316 µM, first compound 10 µM
[7] = second compound 0.1 µM, first compound 0.0316 µM
[8] = second compound 0.1 µM, first compound 0.1 µM
[9] = second compound 0.1 µM, first compound 0.316 µM
[10] = second compound 0.1 µM, first compound 1 µM
[11] = second compound 0.1 µM, first compound 3.16 µM
[12] = second compound 0.1 µM, first compound 10 µM
[13] = second compound 0.316 µM, first compound 0.0316 µM
[14] = second compound 0.316 µM, first compound 0.1 µM
[15] = second compound 0.316 µM, first compound 0.316 µM
[16] = second compound 0.316 µM, first compound 1 µM
[17] = second compound 0.316 µM, first compound 3.16 µM
[18] = second compound 0.316 µM, first compound 10 µM
[19] = second compound 1 µM, first compound 0.0316 µM
[20] = second compound 1 µM, first compound 0.1 µM
[21] = second compound 1 µM, first compound 0.316 µM
[22] = second compound 1 µM, first compound 1 µM
[23] = second compound 1 µM, first compound 3.16 µM
[24] = second compound 1 µM, first compound 10 µM
[25] = second compound 3.16 µM, first compound 0.0316 µM
[26] = second compound 3.16 µM, first compound 0.1 µM
[27] = second compound 3.16 µM, first compound 0.316 µM
[28] = second compound 3.16 µM, first compound 1 µM
[29] = second compound 3.16 µM, first compound 3.16 µM
[30] = second compound 3.16 µM, first compound 10 µM
[31] = second compound 10 µM, first compound 0.0316 µM
[32] = second compound 10 µM, first compound 0.1 µM
[33] = second compound 10 µM, first compound 0.316 µM
[34] = second compound 10 µM, first compound 1 µM
[35] = second compound 10 µM, first compound 3.16 µM
[36] = second compound 10 µM, first compound 10 µM
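Also: spheroids exposed to compounds for one week before readout.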
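For viability, T/C in this document: percent of DMSO vehicle wells luminescence so 100% = untreated viability.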

C=CC(=O)N1CCN(c2nc(=O)n(-c3c(C)ccnc3C(C)C)c3nc(-c4c(O)cccc4F)c(F)cc23)C(C)C1 (stereo unspecified) + Cc1cccc(N(C)C(=O)C2C(O)CCN2c2nc(C)cc(C(F)(F)F)c2C#N)c1 was tested, and the IC50 (second compound 0.0316 µM) was < 0.0316 µM, the IC50 (second compound 0.1 µM) was < 0.0316 µM and the IC50 (second compound 0.316 µM) was < 0.0316 µM. For the same molecule, the IC50 (second compound 1 µM) was < 0.0316 µM, the IC50 (second compound 3.16 µM) was < 0.0316 µM and the IC50 (second compound 10 µM) was < 0.0316 µM. It also gave a viability, T/C [1] of 29.6%, a viability, T/C [2] of 26.5% and a viability, T/C [3] of 24.8%. The viability, T/C [4] was 22.2%, the viability, T/C [5] was 23.5% and the viability, T/C [6] was 27%. For the same molecule, the viability, T/C [7] was 27.8%, the viability, T/C [8] was 25.2% and the viability, T/C [9] was 25%. For the same molecule, the viability, T/C [10] was 23.5%, the viability, T/C [11] was 21.2% and the viability, T/C [12] was 29.3%. It also gave a viability, T/C [13] of 34.9%, a viability, T/C [14] of 22.1% and a viability, T/C [15] of 25.3%. It also gave a viability, T/C [16] of 26%, a viability, T/C [17] of 22.8% and a viability, T/C [18] of 25.5%. It also gave a viability, T/C [19] of 30.3%, a viability, T/C [20] of 25.7% and a viability, T/C [21] of 26.1%. The viability, T/C [22] was 21.8%, the viability, T/C [23] was 26.7% and the viability, T/C [24] was 27.4%. For the same molecule, the viability, T/C [25] was 32.3%, the viability, T/C [26] was 28.7% and the viability, T/C [27] was 31.4%. It also gave a viability, T/C [28] of 25.9%, a viability, T/C [29] of 23.7% and a viability, T/C [30] of 25.7%. It also gave a viability, T/C [31] of 35.3%, a viability, T/C [32] of 28% and a viability, T/C [33] of 25.1%. It also gave a viability, T/C [34] of 26%, a viability, T/C [35] of 32% and a viability, T/C [36] of 28.3%.
For CC1COCCN1c1cc(C2(O)CC3CCC(C2)O3)c2cnn(-c3ccn[nH]3)c2n1 (stereo unspecified) + Cc1cccc(N(C)C(=O)C2C(O)CCN2c2nc(C)cc(C(F)(F)F)c2C#N)c1, the IC50 (second compound 0.0316 µM) was > 10 µM, the IC50 (second compound 0.1 µM) was > 10 µM and the IC50 (second compound 0.316 µM) was > 10 µM. For the same molecule, the IC50 (second compound 1 µM) was > 10 µM, the IC50 (second compound 3.16 µM) was 0.0316 µM and the IC50 (second compound 10 µM) was > 10 µM. The viability, T/C [1] was 87.5%, the viability, T/C [2] was 42.3% and the viability, T/C [3] was 44.2%. For the same molecule, the viability, T/C [4] was 85.3%, the viability, T/C [5] was 70.9% and the viability, T/C [6] was 73.2%. It also gave a viability, T/C [7] of 75.1%, a viability, T/C [8] of 55.5% and a viability, T/C [9] of 52.2%. The viability, T/C [10] was 79.2%, the viability, T/C [11] was 68.8% and the viability, T/C [12] was 72.2%. It also gave a viability, T/C [13] of 72.5%, a viability, T/C [14] of 40.9% and a viability, T/C [15] of 52.5%. It also gave a viability, T/C [16] of 70.3%, a viability, T/C [17] of 80.7% and a viability, T/C [18] of 74.7%. It also gave a viability, T/C [19] of 77.8%, a viability, T/C [20] of 44.7% and a viability, T/C [21] of 51.3%. The viability, T/C [22] was 70.6%, the viability, T/C [23] was 71.3% and the viability, T/C [24] was 92.5%. For the same molecule, the viability, T/C [25] was 74.8%, the viability, T/C [26] was 48.1% and the viability, T/C [27] was 41.1%. For the same molecule, the viability, T/C [28] was 95.4%, the viability, T/C [29] was 78.2% and the viability, T/C [30] was 79%. The viability, T/C [31] was 76.2%, the viability, T/C [32] was 45.2% and the viability, T/C [33] was 54.3%. It also gave a viability, T/C [34] of 85.3%, a viability, T/C [35] of 82.4% and a viability, T/C [36] of 82.6%.
In the case of CCc1cc2c(N3CCc4c(cc(Cn5ccnc5)cc4-c4cn(C)nc4C(F)(F)F)C3=O)ccnc2c(OC)n1 + Cc1cccc(N(C)C(=O)C2C(O)CCN2c2nc(C)cc(C(F)(F)F)c2C#N)c1, the IC50 (second compound 0.0316 µM) is reported as > 10 µM, the IC50 (second compound 0.1 µM) is reported as > 10 µM and the IC50 (second compound 0.316 µM) is reported as > 10 µM. For the same molecule, the IC50 (second compound 1 µM) was > 10 µM, the IC50 (second compound 3.16 µM) was > 10 µM and the IC50 (second compound 10 µM) was > 10 µM. The viability, T/C [1] was 96.1%, the viability, T/C [2] was 99.6% and the viability, T/C [3] was 93.3%. It also gave a viability, T/C [4] of 88.2%, a viability, T/C [5] of 87.6% and a viability, T/C [6] of 91.8%. For the same molecule, the viability, T/C [7] was 88.4%, the viability, T/C [8] was 87.9% and the viability, T/C [9] was 83.5%. The viability, T/C [10] was 112%, the viability, T/C [11] was 91.4% and the viability, T/C [12] was 99.2%. It also gave a viability, T/C [13] of 90.7%, a viability, T/C [14] of 84.7% and a viability, T/C [15] of 91.7%. It also gave a viability, T/C [16] of 96.3%, a viability, T/C [17] of 96.2% and a viability, T/C [18] of 112%. For the same molecule, the viability, T/C [19] was 73%, the viability, T/C [20] was 80.2% and the viability, T/C [21] was 86.1%. It also gave a viability, T/C [22] of 98.2%, a viability, T/C [23] of 97.7% and a viability, T/C [24] of 114%. For the same molecule, the viability, T/C [25] was 87.4%, the viability, T/C [26] was 87.6% and the viability, T/C [27] was 89.5%. It also gave a viability, T/C [28] of 85.4%, a viability, T/C [29] of 108% and a viability, T/C [30] of 115%. It also gave a viability, T/C [31] of 100%, a viability, T/C [32] of 94.2% and a viability, T/C [33] of 90.7%. It also gave a viability, T/C [34] of 93.5%, a viability, T/C [35] of 107% and a viability, T/C [36] of 105%.
